Columns and labels:
[1] = tested on: LAMPU (Lamium purpureum, purple deadnettle); assay: Postemergence herbicidal activity of mixtures in cereal crops, greenhouse; assay type: in vivo, Lamium purpureum L.
Description: (§1) Seeds of the desired test plant species were planted in Sun Gro MetroMix® 306 planting mixture, which typically has a pH of 6.0 to 6.8 and an organic matter content of about 30 percent, in plastic pots with a surface area of 103.2 square centimeters (cm^2). When required to ensure good germination and healthy plants, a fungicide treatment and/or other chemical or physical treatment was applied. The plants were grown for 7-36 days in a greenhouse with an approximate 14 hour photoperiod which was maintained at about 18° C. during the day and about 17° C. during the night. Nutrients and water were added on a regular basis and supplemental lighting was provided with overhead metal halide 1000-Watt lamps as necessary. The plants were employed for testing when they reached the second or third true leaf stage.
(§2) Treatments consisted of the benzyl ester of 4-amino-3-chloro-5-fluoro-6-(4-chloro-2-fluoro-3-methoxy-phenyl)pyridine-2-carboxylic acid (Compound A), formulated as an SC, a second cereal herbicide alone and then both in combination.
(§3) Other herbicidal components were applied on an active ingredient basis and included PSII-inhibiting herbicides.
(§4) Measured aliquots of benzyl ester of 4-amino-3-chloro-5-fluoro-6-(4-chloro-2-fluoro-3-methoxy-phenyl)pyridine-2-carboxylic acid (Compound A) were placed in 25 milliliter (mL) glass vials and diluted in a volume of 1.25% (v/v) Agri-Dex® crop oil concentrate to obtain stock solutions. Compound requirements are based upon a 12 mL application volume at a rate of 187 liters per hectare (L/ha). Spray solutions of the second cereal herbicide and experimental compound mixtures were prepared by adding the stock solutions to the appropriate amount of dilution solution to form 12 mL spray solution with active ingredients in two- and three-way combinations. Formulated compounds were applied to the plant material with an overhead Mandel track sprayer equipped with an 8002E nozzle calibrated to deliver 187 L/ha over an application area of 0.503 square meters (m^2) at a spray height of 18 inches (46 cm) above average plant canopy. Control plants were sprayed in the same manner with the solvent blank.
(§5) The treated plants and control plants were placed in a greenhouse as described above and watered by sub-irrigation to prevent wash-off of the test compounds. After 20-22 days, the condition of the test plants as compared with that of the control plants was determined visually and scored on a scale of 0 to 100 percent where 0 corresponds to no injury and 100 corresponds to complete kill.
(§6) Colby's equation was used to determine the herbicidal effects expected from the mixtures (Colby, S. R. 1967. Calculation of the synergistic and antagonistic response of herbicide combinations. Weeds 15:20-22).
(§7) The following equation was used to calculate the expected activity of mixtures containing two active ingredients, A and B: Expected=A+B−(A×B/100)

[2] = tested on: KCHSC (Kochia scoparia, kochia); assay: as above; assay type: in vivo, Kochia scoparia (L.) Schrad.
Description: as §1, §2, §3, §4, §5, §6, §7

[3] = tested on: BRAPP (Brachiaria platyphylla, broadleaf signalgrass); assay: Pre-emergence soil-applied mixtures, greenhouse; assay type: in vivo, Brachiaria platyphylla (Groseb.) Nash
Text: Seeds or nutlets of the desired test plant species were planted in a soil matrix prepared by mixing a loam soil (32 percent silt, 23 percent clay, and 45 percent sand, with a pH of about 6.5 and an organic matter content of about 1.9 percent) and calcareous grit in an 80 to 20 ratio. The soil matrix was contained in plastic pots with a volume of 1 quart and a surface area of 83.6 square centimeters (cm^2).
Treatments consisted of the benzyl ester of 4-amino-3-chloro-5-fluoro-6-(4-chloro-2-fluoro-3-methoxy-phenyl)pyridine-2-carboxylic acid (compound A) formulated as an SC (suspension concentrate) and various herbicidal components alone and in combination. Forms of compound A were applied on an acid equivalent basis.
Other herbicidal components were applied on an acid equivalent or active ingredient basis and included the PSII-inhibiting herbicides, atrazine formulated as Atrazine® 90WDG, metribuzin formulated as Metribuzin 75DF, simazine formulated as Princep Caliber 90, tebuthiuron formulated as Spike 80DF, cyanazine (technical grade material), hexazinone (technical grade material), linuron (technical grade material), terbuthylazine (technical grade material), and diuron formulated as Diuron 4L.
Treatment requirements were calculated based upon the rates being tested, the concentration of active ingredient or acid equivalent in the formulation, and a 12 mL application volume at a rate of 187 L/ha.
For treatments comprised of formulated compounds, measured amounts of compounds were placed individually in 25 mL glass vials and diluted in a volume of 1.25% (v/v) Agri-Dex® crop oil concentrate (COC) to obtain 12× stock solutions. […] Application solutions were prepared by adding an appropriate amount of each stock solution (e.g., 1 mL) and diluted to the appropriate final concentrations with the addition of 10 mL of an aqueous mixture of 1.25% (v/v) COC so that the final spray solutions contained 1.25% (v/v) COC.
For treatments comprised of technical compounds, weighed amounts can be placed individually in 25 mL glass vials and dissolved in a volume of 97:3 (v/v) acetone/DMSO to obtain 12× stock solutions. […] Application solutions can be prepared by adding an appropriate amount of each stock solution (e.g., 1 mL) and diluted to the appropriate final concentrations with the addition of 10 mL of an aqueous mixture of 1.5% (v/v) COC so that the final spray solutions contain 1.25% (v/v) COC. When technical materials are used, the concentrated stock solutions can be added to the spray solutions so that the final acetone and DMSO concentrations of the application solutions are 16.2% and 0.5%, respectively.
For treatments comprised of formulated and technical compounds, weighed amounts of the technical materials can be placed individually in 25 mL glass vials and dissolved in a volume of 97:3 (v/v) acetone/DMSO to obtain 12× stock solutions, and measured amounts of the formulated compounds can be placed individually in 25 mL glass vials and diluted in a volume of 1.5% (v/v) COC or water to obtain 12× stock solutions. […] Application solutions can be prepared by adding an appropriate amount of each stock solution (e.g., 1 mL) and diluted to the appropriate final concentrations with the addition of an appropriate amount of an aqueous mixture of 1.5% (v/v) COC so that the final spray solutions contain 1.25% (v/v) COC. As required, additional water and/or 97:3 (v/v) acetone/DMSO can be added to individual application solutions so that the final acetone and DMSO concentrations of the application solutions being compared are 8.1% and 0.25%, respectively.
All stock solutions and applications solutions were visually inspected for compound compatibility prior to application. Spray solutions were applied to the soil with an overhead Mandel track sprayer equipped with a 8002E nozzles calibrated to deliver 187 L/ha over an application area of 0.503 m^2 at a spray height of 18 inches (46 cm) above average pot height. […]

[4] = Compound A Benzyl Ester 2.5 g ai/ha
[5] = Compound A Benzyl Ester 5 g ai/ha
[6] = Compound A Benzyl Ester 10 g ai/ha

COc1c(Cl)ccc(-c2nc(C(=O)OCc3ccccc3)c(Cl)c(N)c2F)c1F [Compound A Benzyl Ester, benzyl ester of 4-amino-3-chloro-5-fluoro-6-(4-chloro-2-fluoro-3-methoxy-phenyl)pyridine-2-carboxylic acid]
Visual Weed Control (%)-21 DAA LAMPU Obs [1, 4]: 80% | Visual Weed Control (%)-21 DAA LAMPU Obs ([1]; Compound A Benzyl Ester 2.5 g ai/ha, Table 22): 80% | Visual Weed Control (%)-21 DAA LAMPU Obs [1, 5]: 86% | Visual Weed Control (%)-21 DAA LAMPU Obs ([1]; Compound A Benzyl Ester 5 g ai/ha, Table 22): 86% | Visual Weed Control (%)-21 DAA LAMPU Obs [1, 6]: 94% | Visual Weed Control (%)-21 DAA LAMPU Obs ([1]; Compound A Benzyl Ester 10 g ai/ha, Table 22): 94% | Visual Weed Control (%)-21 DAA KCHSC Obs [2, 4]: 20% | Visual Weed Control (%)-21 DAA KCHSC Obs [2, 5]: 41% | Visual Weed Control (%)-21 DAA KCHSC Obs [2, 6]: 62% | Visual Weed Control (%) - 27 DAA BRAPP Obs ([3]; Compound A Benzyl Ester 16 g ae/ha, Table 28): 0% | Visual Weed Control (%)-28 DAA BRAPP Obs ([3]; Compound A Benzyl Ester 16 g ae/ha): 0% | Visual Weed Control (%) - 27 DAA BRAPP Obs ([3]; Compound A Benzyl Ester 32 g ae/ha, Table 27): 0% | Visual Weed Control (%) - 27 DAA BRAPP Obs ([3]; Compound A Benzyl Ester 32 g ae/ha, Table 28): 0% | Visual Weed Control (%)-28 DAA BRAPP Obs ([3]; Compound A Benzyl Ester 32 g ae/ha): 5%

Source: patent US8912121B2, “Herbicidal compositions comprising 4-amino-3-chloro-5-fluoro-6-(4-chloro-2-fluoro-3-methoxyphenyl)pyridine-2-carboxylic acid or a derivative thereof and certain PS II inhibitors” (Dow Agrosciences LLC, priority 2012, dated 2014)
